Experimental data published in US20240269139A1, “COMPOUNDS FOR TARGETED PROTEIN DEGRADATION OF KINASES” (DANA-FARBER CANCER INSTITUTE, INC., priority 2020, published 2024).
Read-outs that look alike come from different tables or passages of the source.

Assays:
[1] = biological target: T1, extended human kinome (kinase-like proteins) (Homo sapiens, UniProt P54886); assay: Whole cell quantitative proteomics: extended kinome hits; settings: Accession P54886
T1 sequence (P54886 1-795): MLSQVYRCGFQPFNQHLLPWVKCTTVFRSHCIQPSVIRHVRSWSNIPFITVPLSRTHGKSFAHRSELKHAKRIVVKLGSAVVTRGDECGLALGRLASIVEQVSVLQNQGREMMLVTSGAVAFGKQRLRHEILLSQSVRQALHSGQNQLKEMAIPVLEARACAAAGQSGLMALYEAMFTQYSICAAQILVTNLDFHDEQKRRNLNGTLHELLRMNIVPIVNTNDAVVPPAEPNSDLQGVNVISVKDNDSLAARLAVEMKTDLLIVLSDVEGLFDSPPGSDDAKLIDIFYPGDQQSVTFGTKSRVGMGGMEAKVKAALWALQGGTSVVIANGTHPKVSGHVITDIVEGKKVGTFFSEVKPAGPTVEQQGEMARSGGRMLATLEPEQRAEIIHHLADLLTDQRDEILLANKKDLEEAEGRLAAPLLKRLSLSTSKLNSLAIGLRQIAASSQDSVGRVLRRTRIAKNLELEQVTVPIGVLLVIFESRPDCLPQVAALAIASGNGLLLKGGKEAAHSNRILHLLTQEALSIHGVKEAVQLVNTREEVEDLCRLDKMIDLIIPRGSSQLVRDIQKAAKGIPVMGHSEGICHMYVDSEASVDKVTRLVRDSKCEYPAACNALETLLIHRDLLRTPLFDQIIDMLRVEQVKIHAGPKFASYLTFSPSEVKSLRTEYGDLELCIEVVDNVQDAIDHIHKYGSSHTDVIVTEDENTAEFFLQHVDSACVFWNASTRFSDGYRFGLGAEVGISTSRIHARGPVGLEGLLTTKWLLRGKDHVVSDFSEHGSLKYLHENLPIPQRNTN

[2] = biological target: protein kinases (human kinome) (Homo sapiens, UniProt P30291); format: cell-based; settings: experiment wp076
[3] = tested on: protein kinases (human kinome); format: cell-based
[4] = biological target: T2, protein kinases (human kinome) (Homo sapiens, UniProt Q9NYY8); format: cell-based; settings: direction down
T2 sequence (Q9NYY8 1-710): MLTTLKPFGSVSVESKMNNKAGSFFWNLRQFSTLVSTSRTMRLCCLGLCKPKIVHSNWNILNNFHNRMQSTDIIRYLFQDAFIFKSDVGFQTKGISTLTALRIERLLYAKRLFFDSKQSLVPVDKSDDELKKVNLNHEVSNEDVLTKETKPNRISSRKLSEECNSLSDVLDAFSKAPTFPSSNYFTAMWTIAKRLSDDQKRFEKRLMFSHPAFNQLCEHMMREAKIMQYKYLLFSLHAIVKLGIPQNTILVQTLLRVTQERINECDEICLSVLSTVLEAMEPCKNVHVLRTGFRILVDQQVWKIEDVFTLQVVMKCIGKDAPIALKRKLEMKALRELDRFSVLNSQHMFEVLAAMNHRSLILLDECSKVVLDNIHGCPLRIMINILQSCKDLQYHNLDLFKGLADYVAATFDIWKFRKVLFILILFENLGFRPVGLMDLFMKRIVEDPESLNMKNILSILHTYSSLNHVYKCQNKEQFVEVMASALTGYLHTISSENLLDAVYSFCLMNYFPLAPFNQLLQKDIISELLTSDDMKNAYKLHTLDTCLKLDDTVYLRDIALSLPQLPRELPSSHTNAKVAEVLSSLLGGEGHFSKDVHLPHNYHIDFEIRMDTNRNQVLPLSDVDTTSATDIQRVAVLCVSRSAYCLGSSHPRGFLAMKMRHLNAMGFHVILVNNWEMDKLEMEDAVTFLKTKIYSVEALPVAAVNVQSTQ

Sequence of protein kinases (human kinome) (Homo sapiens, UniProt P30291) (P30291 whole entry): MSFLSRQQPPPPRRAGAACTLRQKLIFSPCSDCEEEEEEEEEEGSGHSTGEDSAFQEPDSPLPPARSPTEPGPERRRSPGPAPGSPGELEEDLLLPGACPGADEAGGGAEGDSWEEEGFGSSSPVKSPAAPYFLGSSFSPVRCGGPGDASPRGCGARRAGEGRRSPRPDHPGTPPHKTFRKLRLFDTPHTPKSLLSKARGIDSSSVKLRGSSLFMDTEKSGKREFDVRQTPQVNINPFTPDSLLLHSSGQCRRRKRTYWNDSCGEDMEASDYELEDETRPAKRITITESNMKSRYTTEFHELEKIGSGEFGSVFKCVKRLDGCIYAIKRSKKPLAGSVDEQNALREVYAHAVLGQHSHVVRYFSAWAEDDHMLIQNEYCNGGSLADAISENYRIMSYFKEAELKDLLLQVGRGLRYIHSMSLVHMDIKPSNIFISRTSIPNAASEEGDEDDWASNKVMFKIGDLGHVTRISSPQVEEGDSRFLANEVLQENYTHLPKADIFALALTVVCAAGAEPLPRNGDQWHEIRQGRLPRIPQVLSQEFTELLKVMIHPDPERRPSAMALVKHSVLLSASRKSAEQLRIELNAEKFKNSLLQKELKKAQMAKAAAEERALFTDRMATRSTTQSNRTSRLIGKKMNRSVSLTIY

For `CNC(=O)c1ccccc1Nc1cc(Nc2ccc(N3CCN(CCOCCOCCNC(=O)CNc4cccc5c4C(=O)N(C4CCC(=O)NC4=O)C5=O)CC3)cc2OC)ncc1C(F)(F)F` (stereo not shown) [MFH.5.103.1], the “logFC ALDH18A1” value ([1]; experiment wp076) was −0.4191, the “logFC WEE1 (P30291-1)” value [2] was −0.9694 and the “logFC RPS6KA1” value ([3]; RPS6KA1 (Q15418-2), experiment wp076) was −1.583. For the same molecule, the “logFC RPS6KA1 (Q15418-2)” value ([3]; experiment wp076) was −1.583.

`O=C(COc1cccc2c1C(=O)N(C1CCC(=O)NC1=O)C2=O)NCCCCCCCC(=O)NC1(c2ccc(-c3nc4ccn5c(=O)[nH]nc5c4cc3-c3ccccc3)cc2)CCC1` (stereo not shown) [INY.01.140.1] was tested, and the “logFC ALDH18A1” value ([1]; experiment wp081) was −0.4491, the “logFC PDK3” value ([3]; PDK3 (Q15120-2), experiment wp081) was −0.3755 and the “logFC PDK3 (Q15120-2)” value ([3]; experiment wp081) was −0.3755. The “logFC FASTKD2 (Q9NYY8)” value ([4]; Experiment wp081) was −0.4053.

With `C[C@@H]1C[C@@H](O)c2ncnc(N3CCN(C(=O)[C@H](CNCCCCCCCCCCc4cccc5c4C(=O)N(C4CCC(=O)NC4=O)C5=O)c4ccc(Cl)cc4)CC3)c21` (stereo partly shown) [INY.03.041.01] the “logFC ALDH18A1” value ([1]; experiment wp118) was −0.376 and the “logFC FASTKD2 (Q9NYY8)” value ([4]; Experiment wp118) was −0.4539.
